Measurements as given in patent US6548530B1, “CBI analogs of CC-1065 and the duocarmycins” (The Scripps Research Institute, priority 1995, dated 2003).
pIC50: −log10 of the molar value. Read-outs that look alike come from different tables or passages of the source.

What was measured:
solubility properties = type: physicochemical; conditions: polar protic or aprotic solvents, water, nonpolar solvents
[1] = in vivo; cited from earlier work
L1210 [2] = experiment: in vitro cytotoxic activity (L1210)
[3] = tested on: double-stranded DNA (clone w794); experiment: DNA alkylation of 5′ end-labeled duplex DNA (thermally-induced strand cleavage, PAGE, autoradiography); type: biochemical; conditions: for DNA alkylation efficiency, fold less efficient than (+)-CBI-CDPI1 (26): natural enantiomers
Method: FIG. 21 illustrates the thermally-induced strand cleavage of double-stranded DNA (144 bp, nucleotide no. 138-5238, clone w794) after 24 h incubation of agent-DNA at 4° C. followed by removal of unbound agent and 30 inutes incubation at 100° C.; denaturing 8% polyacrylamide gel and autoradiography. Lanes 1-4, Sanger G,C,A, and T sequencing reactions; lane 5, control labeled w794 DNA; lanes 6-8, (+)-CPI-indole2 ((+)-4, 1×10^−4-1×10^−6 M); lanes 9-11, (+)-CBI-indole2 ((+)-27, 1×10^−5-1×10^−7 M).
FIG. 22 illustrates the thermally-induced strand clealvage of 5′ end-labeled duplex DNA (clone w794, 144 bp, nucleotide no 138-5238). Incubation of agent-DNA at 25° C. (24 h) followed by removal of unbound agent and 30 min thermolysis at 100° C., denaturing 8% PAGE, and autoradiography. Lanes 1-2, ent-(−)-duocarmycin SA ((−)-2, 1×10^−6 and 1×10^−7 M); lanes 3-5, (+)-duocarmycin SA, ((+)-2, 1×10^−6-1×10^−8 M); lanes 6-9, G, C, A and T sequencing reactions; lane 10, control labeled w794 DNA; lanes 11-13, (+)-CBI-TMI ((+)-29, 1×10^−6-1×10^−8 M); lanes 14-15, ent-(−)-CBI-TMI ((−)-29, 1×10^−5 and 1×10^−6 M).
FIGS. 23A-23B represent the following: Top: Plot of % integrated optical density (% IOD) versus time established through autoradiography of 5′ ^32P end-labeled DNA and used to monitor the relative rate of w794 alkylation at the 5′-AATTA high affinity site for (+)-CBI-indole2 (27) and (+)-CPI-indole2 (4); 37° C., 0-5 d, 1×10^−5 M agent. Bottom: Plot of % integrated optical density (% IOD) versus time established through autoradiography of 5′ ^32P end-labeled DNA and used to monitor the relative rate of w794 alkylation at the 5′-AATTA high affinity site for (+)-duocarmycin SA (2) and (+)-CBI-TMI (29); 4° C., 0-24 h, 1×10^−6 M agent.
DNA Alkylation Studies. General procedures, the preparation of singly ^32P 5′ end-labeled double-stranded DNA, the agent binding studies, gel electrophoresis, and autoradiography were conducted according to procedures described in full detail elsewhere. (Boger et. al Tetrahedron 1991, 47, 2661). Eppendorf tubes containing the 5′ end-labeled DNA (9 μL, w794 and w836) in TE buffer (10 mM Tris, 1 mM EDTA, pH 7.5) were treated with the agent DIMETHYLSULFOXIDE (1 μL at the specified concentration). The solution was mixed by vortexing and brief centrifugation and subsequently incubated at 25° C. for 3 days. The covalently modified DNA was separated from unbound agent by Ethanol precipitation and resuspended in TE buffer (10 μL). The solution of DNA in an Eppendorf tube sealed with parafilm was heated at 100° C. for 30 min to induce cleavage at the alkylation sites, allowed to cool to 25° C. and centrifuged. Formamide dye (0.33% xylene cyanol FF, 0.03% bromophenol blue, 8.7% Na2EDTA 250 mM) was added (5 μL) to the supernatant. Prior to electrophoresis, the sample was denatured by warming at 100° C. for 5 min, placed in an ice bath, and centrifuged, before the supernatant (3 μL) was loaded directly onto the gel. Sanger dideoxynucleotide sequencing reactions were run as standards adjacent to the reaction samples. Polyacrylamide gel electrophoresis (PAGE) was run on an 8% sequencing gel under denaturing conditions (8 M urea) in TBE buffer (100 mM Tris, 100 mM boric acid, 0.2 mM Na2EDTA) followed by autoradiography.
DNA Alkylation Studies of 2-5: Selectivity and Efficiency. Eppendorf tubes containing singly ^32P 5′-end-labeled double-stranded DNA^10 (9 μL) in TE buffer (10 mM Tris, 1 mM EDTA, pH 7.5) were treated with the agents 190-196 in DIMETHYLSULFOXIDE (1 μL, at the specified concentrations). The solutions were mixed by vortexing and brief centrifugation and subsequently incubated at 4° C. for 24 h. The covalently modified DNA was separated from unbound agent by Ethanol precipitation of the DNA. The Ethanol precipitations were carried out by adding t-RNA as a carrier (1 μL, 10 1μg/μL), a buffer solution containing salt (0.1 volume, 3 M NaOAc in TE) and −20° C. Ethanol (2.5 volumes). […]

[4] = (+)-enantiomer; cited from earlier work
L1210 [5] = conditions: cited from earlier work
[6] = Mus musculus, L1210, read-out: cytotoxic potency

For `COc1c(O)c2c(c3cc(C(=O)N4CCc5c4c(O)c(OC)c4[nH]c(C(=O)N6C[C@H]7C[C@@]78C6=CC(=O)c6[nH]cc(C)c68)cc54)[nH]c13)CCN2C(N)=O` [(+)-CC-1065, CC-1065], the solubility (solubility properties) is listed as “essentially insoluble in all solvents except DMSO or DMF”, the delayed toxicity [1] is listed as “exhibited the delayed toxicity” and the pIC50 (L1210 [2]; L1210) is listed as 10.70.
In the case of `Cc1c[nH]c2c1[C@@]13C[C@@H]1CN(C(=O)c1cc4c5c(ccc4[nH]1)N(C(=O)c1cc4c6c(ccc4[nH]1)N(C(N)=O)CC6)CC5)C3=CC2=O` [(+)-CPI-CDPI2], the delayed toxicity [1] is listed as “exhibited the delayed toxicity”.
For `NC(=O)N1CCc2c1ccc1[nH]c(C(=O)N3C[C@H]4C[C@@]45C3=CC(=O)c3ccccc35)cc21` [Compound 26, CBI-CDPI1], the “DNA alkylation selectivity (sequence)” value ([3]; (+)-enantiomer) was 5′-A/TA/TA/TA and the “DNA alkylation selectivity (sequence)” value ([3]; ent-(−)-enantiomer) was 5′-A/TAA/TA/T.
For `O=C(Nc1ccc2[nH]c(C(=O)N3CC4CC45C3=CC(=O)c3ccccc35)cc2c1)c1cc2ccccc2[nH]1` (centres unmarked) [Compound 27], the “relative rate of DNA alkylation k(27)/k(4)” value ([3]; single high affinity site (5′-AATTA) of w794 DNA, 37° C., 0-5 d, 1×10^−5 M agent) is given as 14, the “DNA alkylation efficiency, fold more efficient than (+)-CPI-indole2 (4)” value ([3]; w794, 4° C. or 37° C., (+)-enantiomers) is given as 10 × and the “in vivo antitumor activity” value [4] is given as “potent and efficacious”. The delayed toxicity [1] was “lacked the delayed fatal toxicity”, the “cytotoxic potency compared with (+)-CC-1065” value (L1210 [2]; (+)-enantiomer) was “comparable” and the “cytotoxic potency, fold greater than (+)-CPI-indole2 (4, U71,184)” value (L1210 [2]; (+)-enantiomer) was 4 ×.
In the case of `COc1cc2cc(C(=O)N3CC4CC45C3=CC(=O)c3ccccc35)[nH]c2c(OC)c1OC` (centres unmarked) [Compound 29, CBI-TMI], the “relative rate of DNA alkylation k(29)/k(2)” value ([3]; 5′-AATTA high affinity site of w794 DNA, 4° C., 0-24 h, 1×10^−6 M agent) was 0.9.
For `NC(=O)N1CCc2c1ccc1oc(C(=O)N3C[C@H]4CC45C3=CC(=O)c3ccccc35)nc21` (some centres unmarked) [Compound 62, CBI-CDPBO1], the “DNA alkylation efficiency, fold less efficient than (+)-CBI-CDPI1 (26)” value [3] was “approximately 100 ×” and the pIC50 (L1210 [2]; [6]) was 9.00 to 9.30.
In the case of `NC(=O)N1CCc2c1ccc1[nH]c(C(=O)N3C[C@H]4CC45C3=CC(=O)c3ccccc35)nc21` (some centres unmarked) [Compound 64, N^2-[(3′-carbamoyl-1′,2′-dihydro-3′H-pyrrolo[3′,2′-e]benzimidazol-7′-yl)carbonyl]-1,2,9,9a-tetrahydro-cyclopropa-[c]-enz[e]-indol-4-one], the “DNA alkylation efficiency, fold less efficient than (+)-CBI-CDPI1 (26)” value [3] was “approximately 100 ×” and the pIC50 (L1210 [2]; [6]) was 9.00 to 9.30.
With `Cl.NNC(=O)N1CC(CCl)c2c1cc(O)c1ccccc21` (centres unmarked) [Compound 73, 1-(Chloromethyl)-3-(hydrazino)carbonyl-5hydroxy-1,2-dihydro-3H-benz[e]indole hydrochloride] the “in vitro cytotoxic activity compared with N-BOC-CBI (9)” value (L1210 [2]) was “more potent”, the “in vitro cytotoxic activity, fold more potent than tert-butylcarbazate precursor 72” value (L1210 [2]; free semicarbazide versus 72) was “ca. 100 ×” and the “in vitro cytotoxic activity, fold less potent than (+)-CC-1065” value (L1210 [2]; seco precursor with free amine) was 100 ×.
For `COc1c(O)c2c(c3cc(C(=O)N4CCc5c4c(O)c(OC)c4[nH]c(C(=O)N6CC7CC78C6=CC(=O)c6[nH]cc(C)c68)cc54)[nH]c13)CCN2C(N)=O` (stereo not drawn) [ent-(−)-CC-1065], the “cytotoxicity compared with natural (+)-CC-1065” value (L1210 [5]) is given as “equally cytotoxic” and the delayed toxicity [1] is given as “has not been observed”.
(+)-CPI-PDE-I1 [reference compound] gave a pIC50 (L1210 [2]; L1210) of 10.70.
